This note sets out measurements from US20180236011A1, “METHODS TO ENHANCE TUMOR-TARGETING BY BACTERIA” (priority 2017, published 2018).

The test system of test [1] is melanoma PDOX. Kind of test: Confocal microscopy of S. typhimurium A1-R-GFP tumor targeting (fluorescent area). The class given is in vivo, Athymic nu/nu nude mice. The following applies: drug combined with S. typhimurium A1-R. The protocol: GFP-expressing S. typhimurium A1-R bacteria (AntiCancer Inc.,) were grown overnight on LB medium (Fisher Sci., Hanover Park, Ill., USA) and then diluted 1:10 in LB medium. Bacteria were harvested at late-log phase, washed with PBS, and then diluted in PBS. S. typhimurium A1-R was injected intravenously. A total of 5×10^7 CFU S. typhimurium A1-R in 100 μl PBS was administered to each mouse.
(§1) PDOX mouse models were randomized into four groups of 10 mice each: untreated control (n=10); treated with S. typhimurium A1-R (5×10^7 CFU/100 μl, i.v., qw×2, n=10); treated with TEM (25 mg/kg, p.o., qd×14) combined with S. typhimurium A1-R (5×10^7 CFU/[…]., qw×2, n=10); treated with VEM (30 mg/kg, p.o., qd×14) combined with S. typhimurium A1-R (5×10^7CFU/100 μl, i.v., qw×2, n=10). Tumor length and width were measured twice a week. Tumor volume was calculated with the following formula: Tumor volume (mm3)=length (mm)×width (mm)×width (mm)×½. Data are presented as mean±SD. The tumor volume ratio is defined at the tumor volume at any given time point relative to the initial tumor volume.
The FV1000 confocal microscope (Olympus, Tokyo, Japan) was used for high-resolution imaging. Fluorescence images were obtained using the 20×/0.50 UPLAN FLN and 40×/1.3 oil Olympus UPLAN FLN objectives. The tumor fluorescent area was analyzed with UVP software (UVP, Upland, Calif.).

The subject of test [2] is melanoma PDOX. Kind of test: Histological analysis (H&E) of treated PDOX tumors. The class given is in vivo, Athymic nu/nu nude mice. The following applies: each drug combined with S. typhimurium A1-R; much more extensive than S. typhimurium A1-R. The protocol: as §1
Fresh tumor samples were fixed in 10% formalin and embedded in paraffin before sectioning and staining. Tissue sections (5 μm) were deparaffinized in xylene and rehydrated in an ethanol series. Hematoxylin and eosin (H&E) staining was performed according to standard protocols. Histological examination was performed with a BHS System Microscope (Olympus Corporation, Tokyo, Japan). Images were acquired with INFINITY ANALYZE software (Lumenera Corporation, Ottawa, Canada).

Molecules are shown by their SMILES.

Consider `Cn1nnc2c(C(N)=O)ncn2c1=O` [TEM, temozolamide], for which, in the test on melanoma PDOX [1] (elevated accumulation leading to extensive tumor necrosis), the “S. typhimurium A1-R tumor targeting / accumulation” value is recorded as “promoted S. typhimurium A1-R tumor targeting”. Further, the “S. typhimurium A1-R-GFP fluorescent area compared to S. typhimurium A1-R alone” value in the test with melanoma PDOX [1] (p<0.01) was “significantly increase”. For the same compound, the “tumor necrosis (histology)” value with melanoma PDOX [2] is “extensive necrosis”.
